Assay results as given in EP4643869A1, “USE OF GNRH ANTAGONISTS SUCH AS TEVERELIX TO TREAT ACUTE URINARY RETENTION” (Antev Limited, priority 2024, dated 2025).
Counter-ions that a name gives are not always drawn. Blank lines part the entries; values can stand above or below the compound they belong to. Where a SMILES comes first, the peptide text is derived from it. [ ]: non-standard residue; d: D form. dPhe(4-Cl) = N[C@H](Cc1ccc(Cl)cc1)C(=O)O; d2Nal = N[C@H](Cc1ccc2ccccc2c1)C(=O)O; d(hCit) = NC(=O)NCCCC[C@@H](N)C(=O)O; Lys(iPr) = CC(C)NCCCC[C@H](N)C(=O)O; d3Pal = N[C@H](Cc1cccnc1)C(=O)O

Key:
[1] = test system: patients 50 years or over, with BPH and bothersome voiding symptoms; test: Investigator rating of efficacy and tolerability at final assessment (Experiment I); format: in vivo, human
Method: This was a multicentre (n=8), randomised, double-blind, placebo-controlled study in treatment of patients 50 years or over, with BPH and bothersome voiding symptoms characterized as an International Prostate Symptom Score (IPSS score ≥13) and a uroflow <13 mL/sec for a voided volume ≥150 mL. Exclusion criteria included an urgent need for prostate surgery, elevated prostate specific antigen (PSA) levels above the upper limit of normal relative to age, major organ dysfunction, prior surgical treatment of the prostate or bladder, and a large residual urine volume (>350 mL).
The study comprised two periods: a four-week single-blind placebo run-in period for all patients to remove any placebo responders and reduce between-patient variability in baseline measurements. This was followed by a 16-week randomised, double-blind, placebo-controlled, parallel group period for eligible patients. Following screening (Day-28), patients entered the placebo run-in period and received two subcutaneous injections of placebo, 48 h apart. During this period, one visit was planned for training purposes (e.g., IPSS). […]
At the final assessment, the investigator assessed efficacy and tolerability as either very good/good, satisfactory, poor/insufficient, or not assessable.

[2] = test system: patients 50 years or over, with BPH and bothersome voiding symptoms; test: Safety: adverse events (Experiment I); format: in vivo, human
Method: (§1) The study comprised two periods: a four-week single-blind placebo run-in period for all patients to remove any placebo responders and reduce between-patient variability in baseline measurements. This was followed by a 16-week randomised, double-blind, placebo-controlled, parallel group period for eligible patients. Following screening (Day-28), patients entered the placebo run-in period and received two subcutaneous injections of placebo, 48 h apart. During this period, one visit was planned for training purposes (e.g., IPSS). At the end of the placebo run-in period, patients still meeting the eligibility criteria were randomised to receive two subcutaneous injections of 60 mg teverelix or placebo, 48 h apart, on day 1 and day 3. Teverelix was supplied as a freeze-dried powder that was reconstituted with 5% mannitol in water for injection. Corresponding placebo formulations, without teverelix-TFA, were also prepared. Injections were given in the abdomen. Patients attended follow-up visits for up to 16 weeks.
Safety included the assessment of adverse events (AEs), vital signs (supine blood pressure and pulse), electrocardiograms (ECG), and clinical laboratory parameters (haematology, clinical chemistry, and urinalysis). Drug-related AEs were defined as those with a relationship to study drug of `likely' or `not assessable'.

[3] = Plasma concentrations of teverelix (Experiment I); format: in vivo, human; settings: 60 mg s.c. on Day 1 and Day 3
Method: as §1
Blood samples were gathered in the morning on Day 1 and Day 3 prior to dosing, along with assessments at the conclusion of Weeks 1, 2, 3, 4, 8, 12, and the final evaluation at Week 16, for the measurement of teverelix, testosterone, and dihydrotestosterone (DHT). Plasma concentrations of teverelix were analysed to delineate the release profile of the active substance from teverelix.

testosterone = test: PKPD of single-dose teverelix-TFA, subcutaneous or intramuscular; format: in vivo; settings: single dose of 120 mg subcutaneous
male and female subjects = test: Safety across 16 Phase 1 and Phase 2 clinical trials; format: in vivo; settings: 1,117 injections s.c. or i.m.; no SUSARs reported
Method: Teverelix-TFA has been studied in 450 male and female subjects in 16 Phase 1 and Phase 2 clinical trials. Teverelix-TFA has been tested in various dosing regimens in Phase 2 clinical trials in 97 patients with BPH.
Administrations have ranged from a single dose of 0.125 mg up to 180 mg repeat doses of teverelix for three consecutive days.

[4] = test system: patients with a first episode of AUR related to BPH; settings: alfuzosin 10 mg once daily; placebo 39.7%; cited from earlier work

time until which teverelix plasma concentrations kept rising [3]: until the end of Week 3 | PKPD profile versus two subcutaneous injections of 60 mg two days apart (testosterone): comparable
Compound: CC(=O)N[C@H](Cc1ccc2ccccc2c1)C(=O)N[C@H](Cc1ccc(Cl)cc1)C(=O)N[C@H](Cc1cccnc1)C(=O)N[C@@H](CO)C(=O)N[C@@H](Cc1ccc(O)cc1)C(=O)N[C@H](CCCCNC(N)=O)C(=O)N[C@@H](CC(C)C)C(=O)N[C@@H](CCCCNC(C)C)C(=O)N1CCC[C@H]1C(=O)N[C@H](C)C(N)=O [teverelix, N-Ac-d-Nal^1,d-pCl-Phe^2,d-Pal^3,d-(Hci)^6,Lys(iPr)^8,d-Ala^10 trifluoroacetate] (Ac-[d2Nal][dPhe(4-Cl)][d3Pal]SY[d(hCit)]L[Lys(iPr)]P[dA]-NH2)
patients rated by the investigator as having very good/good tolerability [1]: all patients | patients reporting an AE likely drug-related or not assessable ([2]; 22 patients of 41): 53.7% | intensity of drug-related AEs ([2]; in vivo): mild intensity | patients with drug-related hyperuricaemia ([2]; in vivo): one patient | patients with drug-related urinary retention ([2]; in vivo): 1 patient | serious AEs, assessed as not drug related ([2]; in vivo): cholelithiasis/pancreatitis | injection site induration ([2]; share of patients): 17.1% | pain (AE) ([2]; share of patients): 2.4% | subcutaneous injection site reactions ([2]; share of patients): 31.7% | overall safety and tolerability (male and female subjects): safe and well-tolerated

Compound: COc1cc2nc(N(C)CCCNC(=O)C3CCCO3)nc(N)c2cc1OC (stereo not shown) [alfuzosin]
success rate after 6 months (successful TWOC and no AUR relapse nor any need for surgery) [4]: 43.5%
